Patent US10702497B2, “Use of acyl-homoserine lactone derivatives as anti-thrombotic agents” (The University of Toledo, priority 2015, dated 2020)

How the values were obtained:
Format in all cases: cell-based
[1] = tested on: human platelets; assay: Thrombin-induced platelet activation, surface CD62P by flow cytometry; conditions: 0.1 U/ml thrombin; for maximal inhibitory concentration (MIC) for thrombin: AHL pre-incubation 15 minutes at 37° C., CD62P; for inhibition of platelet activation by thrombin: several concentrations of AHL
[2] = tested on: human platelets; assay: aggIgG-induced platelet activation, surface CD62P by flow cytometry; conditions: aggIgG 50 or 500 μg/ml; several concentrations of AHL
[3] = tested on: human platelets; assay: Platelet tyrosine phosphorylation (whole cell lysates, SDS-PAGE, anti-phosphotyrosine blot); conditions: 20 μM 12C-AHL
Method: FIGS. 3A-3C: Effect of AHLs on tyrosine phosphorylation. Human platelets were incubated with PBS or 12C-AHL then left unstimulated or stimulated with […] aggIgG or 0.1 Um′ thrombin. Whole cell lysates were prepared as described in the examples and blotted for anti-phosphotyrosine or anti-GAPDH as loading control. (FIG. 3A.) To determine band intensities, total band intensity in the phosphorylation gel was divided by the GAPDH signal and plotted as total band intensity. (FIG. 3B.) Intensity of the indicated band was compared to GAPDH and plotted as band intensity. (FIG. 3C.)
Results from the above experiments indicate that AHLs are altering platelet signaling downstream of FcγRIIa (the receptor for aggIgG) and thrombin receptors (PAR1/4) to a lesser extent. To test this, human platelets were incubated with PBS or 20 μM 12C-AHL for 15 min at 37° C. followed by stimulation with thrombin or aggIgG. Whole cell lysates were separated by SDS-PAGE and blotted for phosphotyrosine.

[4] = tested on: human platelets; assay: Platelet phagocytosis of IgG-coated beads through FcγRIIa (flow cytometry); conditions: FITC-IgG-coated 1.5 μm beads, 30 minutes
Method: FIGS. 4A-4C: Effect of AHLs on platelet-mediated phagocytosis. Human platelets were incubated as indicated in the examples and analyzed by flow cytometry for FITC-IgG and PE-anti-IgG. (FIG. 4A.) Platelets were incubated with PBS, 10C- or 12C-AHLs or cytochalasin D (positive control to block phagocytosis), then exposed to FITC-IgG-coated […] beads for 30 minutes, labeled with anti-IgG conjugated to PE and analyzed by flow cytometry for FITC-IgG and PE-anti-IgG. (FIG. 4B.) Platelets were treated as in FIG. 4B and surface CD62P expression was measured by flow cytometry. * p<0.01, ** p<0.005. (FIG. 4C.)
Polystyrene beads, 1.5 μm in diameter, (Polysciences, Warrington, Pa.) were opsonized for 2 hours at 21° C. in a 10 mg/ml solution FITC labeled human IgG (SigmaAldrich, St. Louis, Mo.) or unlabeled human IgG for controls. After washing three times in PBS, beads were then resuspended in buffer and counted via hemacytometer. […]
Samples were prepared for flow cytometry and platelets with associated beads were gated on CD42b+/FITC+ and analyzed for internal/external by the absence/presence of PE expression on a FACSCalibur (B-D Biosciences). […] Data were analyzed using Cell Quest (B-D Biosciences) and FlowJo (Tree Star, Inc., Ashland, Oreg.) software.
Because AHLs inhibit signaling (especially aggIgG-induced tyrosine phosphorylation), whether other platelet activities are inhibited was evaluated. […]

Row | maximal inhibitory concentration (MIC) for thrombin [1] | Compound | inhibition of platelet activation by thrombin [1] | inhibition of platelet activation by aggIgG [2] | effect on tyrosine phosphorylation in unstimulated platelets ([3]; 15 min at 37° C., unstimulated) | effect on tyrosine phosphorylation in platelets stimulated with thrombin ([3]; 0.1 U/ml thrombin) | effect on phosphorylation induced by aggIgG ([3]; aggIgG stimulation) | inhibition of the phagocytic activity of platelets [4]
1 | 200 µM | CCCCCCCC(=O)CC(=O)N[C@H]1CCOC1=O [10C-AHL, N-(3-oxodecanoyl)-L-homoserine lactone] | inhibit platelet activation | inhibit platelet activation |  |  |  | 
2 | 200 µM | CCCCCCCCCC(=O)CC(=O)N[C@@H]1CCOC1=O [12C-AHL, N-oxo-dodecanoyl-L-homoserine lactone] | inhibit platelet activation | inhibit platelet activation | marginal effect | marginal effect | nearly completely abolished | 
3 |  | C=C1[C@@H](C)[C@H]2[C@H](Cc3ccccc3)NC(=O)[C@]23[C@H](OC(C)=O)/C=C/[C@@](C)(O)C(=O)[C@@H](C)C/C=C/[C@H]3[C@@H]1O [cytochalasin D] |  |  |  |  |  | > 90%
